According to PubChem BioAssay (NCI):
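Following 48 hours of exposure in 96-well plates, responses at five concentrations were used to interpolate endpoints linearly. TGI marks complete inhibition of growth.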

Experiments:
Test in all cases: NCI-60 cell line screen, 48 h
[1] = test system: 786-0 renal
[2] = test system: A498 renal
[3] = test system: A549 NSCLC
[4] = test system: ACHN renal
[5] = test system: CAKI-1 renal
[6] = test system: CCRF-CEM leukemia
[7] = test system: COLO 205 colon
[8] = test system: DU-145 prostate
[9] = test system: EKVX NSCLC
[10] = test system: HCC-2998 colon
[11] = test system: HCT-116 colon
[12] = test system: HCT-15 colon
[13] = test system: HL-60(TB) leukemia
[14] = test system: HOP-62 NSCLC
[15] = test system: HOP-92 NSCLC
[16] = test system: HS 578T breast
[17] = test system: HT29 colon
[18] = test system: IGROV1 ovarian
[19] = test system: K-562 leukemia
[20] = test system: KM12 colon
[21] = test system: LOX IMVI melanoma
[22] = test system: M14 melanoma
[23] = test system: MALME-3M melanoma
[24] = test system: MCF7 breast
[25] = test system: MDA-MB-231 breast
[26] = test system: MDA-MB-435
[27] = test system: MDA-N
[28] = test system: MOLT-4 leukemia
[29] = test system: NCI-H226 lung
[30] = test system: NCI-H460 lung
[31] = test system: NCI-H522 lung
[32] = test system: NCI/ADR-RES ovarian
[33] = test system: OVCAR-3 ovarian
[34] = test system: OVCAR-4 ovarian
[35] = test system: OVCAR-5 ovarian
[36] = test system: OVCAR-8 ovarian
[37] = test system: RPMI-8226 leukemia
[38] = test system: RXF 393 renal
[39] = test system: SF-268 CNS
[40] = test system: SF-295 CNS
[41] = test system: SF-539 CNS
[42] = test system: SK-MEL-2 melanoma
[43] = test system: SK-MEL-28 melanoma
[44] = test system: SK-MEL-5 melanoma
[45] = test system: SK-OV-3 ovarian
[46] = test system: SN12C renal
[47] = test system: SNB-75 CNS
[48] = test system: SR leukemia
[49] = test system: SW-620 colon
[50] = test system: T-47D breast
[51] = test system: TK-10 renal
[52] = test system: UACC-257 melanoma
[53] = test system: UACC-62 melanoma

## CC[C@H](C)[C@H]1NC(=O)[C@@H](NC(=O)[C@@H](CC(C)C)N(C)C(=O)C2CCCN2C(=O)[C@H](C)O)[C@@H](C)OC(=O)[C@@H]2Cc3ccccc3CN2C(=O)[C@@H]2CCCN2C(=O)[C@H](CC(C)C)NC(=O)[C@@H](C)C(=O)[C@H](C(C)C)OC(=O)C[C@@H]1O (stereo partly drawn)
[1]
  TGI: 11.1 µM
[2]
  TGI: 5.96 µM
[3]
  TGI: 21.3 µM
[4]
  TGI: 15.5 µM
[5]
  TGI: > 50 µM
[6]
  TGI: 1.66 µM
[7]
  TGI: 2.61 µM
[8]
  TGI: 6.31 µM
[9]
  TGI: > 55 µM
[10]
  TGI: 3.26 µM
[11]
  TGI: 5.08 µM
[12]
  TGI: > 100 µM
[13]
  TGI: 0.433 µM
[14]
  TGI: 12 µM
[15]
  TGI: 28.8 µM
[16]
  TGI: > 38.4 µM
[17]
  TGI: 10.7 µM
[18]
  TGI: > 73.7 µM
[19]
  TGI: > 41.2 µM
[20]
  TGI: 5.13 µM
[21]
  TGI: 9.11 µM
[22]
  TGI: 13.3 µM
[23]
  TGI: 5.16 µM
[24]
  TGI: 12.8 µM
[25]
  TGI: 10.3 µM
[26]
  TGI: 8.1 µM
[27]
  TGI: 12.5 µM
[28]
  TGI: 5 µM
[29]
  TGI: 6.4 µM
[30]
  TGI: 5.09 µM
[31]
  TGI: > 49.3 µM
[32]
  TGI: > 100 µM
[33]
  TGI: 6.68 µM
[34]
  TGI: > 25 µM
[35]
  TGI: 12.7 µM
[36]
  TGI: > 54.8 µM
[37]
  TGI: 10.4 µM
[38]
  TGI: 6.48 µM
[39]
  TGI: 6.34 µM
[40]
  TGI: > 28.6 µM
[41]
  TGI: 8.42 µM
[42]
  TGI: 1.55 µM
[43]
  TGI: 23.1 µM
[44]
  TGI: 2.86 µM
[45]
  TGI: > 42 µM
[46]
  TGI: 5.56 µM
[47]
  TGI: 1.94 µM
[48]
  TGI: 1.08 µM
[49]
  TGI: > 42.6 µM
[50]
  TGI: > 100 µM
[51]
  TGI: > 70.1 µM
[52]
  TGI: 6.11 µM
[53]
  TGI: 4.47 µM
